Measured values from patent US20040234981A1, “Method of determining dna base sequence” (priority 2001, published 2004).
“And” between values parts separate entries of the source, which are not always exact repeats. Equal values may be shown once.

B1: T7 RNA polymerase F644Y/Δ3: T7 RNA polymerase F644Y with Δ3 deficiency (DEL 178-180) (protein, UniProt P00573 1-883, looked up, variant F644Y del178-180)
T7 RNA polymerase: MNTINIAKNDFSDIELAAIPFNTLADHYGERLAREQLALEHESYEMGEARFRKMFERQLKAGEVADNAAAKPLITTLLPKMIARINDWFEEVKAKRGKRPTAFQFLQEIKPEAVAYITIKTTLACLTSADNTTVQAVASAIGRAIEDEARFGRIRDLEAKHFKKNVEEQLNKRVGHVAFMQVVEADMLSKGLLGGEAWSSWHKEDSIHVGVRCIEMLIESTGMVSLHRQNAGVVGQDSETIELAPEYAEAIATRAGALAGISPMFQPCVVPPKPWTGITGGGYWANGRRPLALVRTHSKKALMRYEDVYMPEVYKAINIAQNTAWKINKKVLAVANVITKWKHCPVEDIPAIEREELPMKPEDIDMNPEALTAWKRAAAAVYRKDKARKSRRISLEFMLEQANKFANHKAIWFPYNMDWRGRVYAVSMFNPQGNDMTKGLLTLAKGKPIGKEGYYWLKIHGANCAGVDKVPFPERIKFIEENHENIMACAKSPLENTWWAEQDSPFCFLAFCFEYAGVQHHGLSYNCSLPLAFDGSCSGIQHFSAMLRDEVGGRAVNLLPSETVQDIYGIVAKKVNEILQADAINGTDNEVVTVTDENTGEISEKVKLGTKALAGQWLAYGVTRSVTKRSVMTLAYGSKEYGFRQQVLEDTIQPAIDSGKGLMFTQPNQAAGYMAKLIWESVSVTVVAAVEAMNWLKSAAKLLAAEVKDKKTGEILRKRCAVHWVTPDGFPVWQEYKKPIQTRLNLMFLGQFRLQPTINTNKDSEIDAHKQESGIAPNFVHSQDGSHLRKTVVWAHEKYGIESFALIHDSFGTIPADAANLFKAVRETMVDTYESCDVLADFYDQFADQLHESQLDKMPALPAKGNLNLRDILESDFAFA
B2: T7 RNA polymerase F644Y/Δ2: T7 RNA polymerase F644Y deficient in amino acids 172 and 173 and 178 through 180; plasmid pT7RF644Y/Δ2 (protein, UniProt P00573 1-883, looked up, variant F644Y del172-173 del178-180)
T7 RNA polymerase: MNTINIAKNDFSDIELAAIPFNTLADHYGERLAREQLALEHESYEMGEARFRKMFERQLKAGEVADNAAAKPLITTLLPKMIARINDWFEEVKAKRGKRPTAFQFLQEIKPEAVAYITIKTTLACLTSADNTTVQAVASAIGRAIEDEARFGRIRDLEAKHFKKNVEEQLNVGHVAFMQVVEADMLSKGLLGGEAWSSWHKEDSIHVGVRCIEMLIESTGMVSLHRQNAGVVGQDSETIELAPEYAEAIATRAGALAGISPMFQPCVVPPKPWTGITGGGYWANGRRPLALVRTHSKKALMRYEDVYMPEVYKAINIAQNTAWKINKKVLAVANVITKWKHCPVEDIPAIEREELPMKPEDIDMNPEALTAWKRAAAAVYRKDKARKSRRISLEFMLEQANKFANHKAIWFPYNMDWRGRVYAVSMFNPQGNDMTKGLLTLAKGKPIGKEGYYWLKIHGANCAGVDKVPFPERIKFIEENHENIMACAKSPLENTWWAEQDSPFCFLAFCFEYAGVQHHGLSYNCSLPLAFDGSCSGIQHFSAMLRDEVGGRAVNLLPSETVQDIYGIVAKKVNEILQADAINGTDNEVVTVTDENTGEISEKVKLGTKALAGQWLAYGVTRSVTKRSVMTLAYGSKEYGFRQQVLEDTIQPAIDSGKGLMFTQPNQAAGYMAKLIWESVSVTVVAAVEAMNWLKSAAKLLAAEVKDKKTGEILRKRCAVHWVTPDGFPVWQEYKKPIQTRLNLMFLGQFRLQPTINTNKDSEIDAHKQESGIAPNFVHSQDGSHLRKTVVWAHEKYGIESFALIHDSFGTIPADAANLFKAVRETMVDTYESCDVLADFYDQFADQLHESQLDKMPALPAKGNLNLRDILESDFAFA

How the values were obtained:
Assay type in all cases: biochemical
3′-dATP [1] = assay: Test (1): 3′-dATP added during in vitro transcription, amount of RNA synthesized (SYBER Green II gel image); settings: 3′-dATP concentration 0.024 mM, wild form of T7 RNA polymerase taken as 1, inverse of RNA synthesis level
Experimental: (§1) The ability to incorporate 3′-dATP of the Δ type enzyme of purified T7 RNA polymerase was compared to that of the wild type and F644Y mutation.
In this method, 3′-dATP was added during an in vitro transcription reaction and the synthesis level was determined by comparison with synthesis impairment. This will be described in greater detail. The template employed was pBluescriptII (Stratagene) pretreated with the restriction enzyme ScaI (made by Nippon Gene). The reaction conditions were: 40 mM Tris-HCl, pH 8.0, 25 mM NaCl, 8 mM MgCl2, 2 mM spermidine-(HCl)3, and 5 mM DTT. The concentration of nucleotides ATP, CTP, GTP, and UTP was 0.5 mM. Of these, ATP was replaced with 3′-dATP (Sigma) in ranges of 0.006 mM, 0.008 mM, 0.012 mM, and 0.024 mM. The above purified enzymes were added to 20 μL of this solution and the reaction was conducted for 30 to 60 min at 37° C. At the conclusion of the reaction, 4 μL of 5× gel loading buffer was added (15% Ficoll, 0.1% BPB, 0.1% XC, 0.5% SDS, and 0.1 M EDTA). The entire solution was then subjected to electrophoresis in a 1% modified agarose gel containing formaldehyde. At the conclusion of electrophoresis, 10,000-fold dilution was conducted with SYBER Green II (made by Molecular Probe Co.) and dying was conducted for 20 to 40 min according to a protocol of addition to the product. A Fluoro S Multiimager (BiORad Co.) was then employed to irradiate ultraviolet radiation and pick up the fluorescent image. Multianalyst, an attached image analyzing software package, was used to determine the amount of RNA that had been synthesized from the image picked up. The various values of the results were compared. An increase in ability to incorporate 3′-dATP should result in a drop in the synthesis level. Accordingly, a comparison was made with a control, and the inverse thereof was employed as indicator of how readily 3′-dATP was incorporated.

3′-dATP [2] = assay: Test (2): 3′-dATP added during in vitro transcription with Biotin-labeled CTP, chemoluminescent signal detection; settings: 3′-dATP concentration 0.00125 mM, wild form taken as 1, average of three runs
Experimental: as §1
In this method, 3′-dATP was added during an in vitro transcription reaction and the synthesis level was determined by comparison with synthesis impairment. This will be described in greater detail. The template employed was pBluescriptII (Stratagene) pretreated with the restriction enzyme ScaI (made by Nippon Gene). The reaction conditions were: 40 mM Tris-HCl, pH 8.0, 25 mM NaCl, 8 mM MgCl2, 2 mM spermidine-(HCl)3, and 5 mM DTT. The concentration of ribonucleotides rATP, rCTP, rGTP, and rUTP was 0.5 mM. A 0.1 mM quantity of Biotin-labeled CTP was added and 3′-dATP was added in ranges of 0.00125 mM, 0.0025 mM, and 0.005 mM. A 25 U quantity of enzymes purified as set forth above were added to 10 μL of this solution and the reaction was conducted for 60 min at 37° C. At the conclusion of the reaction, 1 μL of 10× gel loading buffer (1 mM EDTA, 1% SDS, 50% glycerol, and 0.05% BPB) was added. The entire solution was then subjected to electrophoresis in a 1% modified formamide gel. At the conclusion of electrophoresis, northern hybridization was conducted, the synthesized product was transcribed onto a nylon membrane, and signal detection was conducted based on a chemoluminescent substrate according to a protocol of anti-SA-AP antibody (made by Oriental Yeast Co., diluted 20,000-fold) and CDP-Star™ (made by Roche Co.). A Fluoro S Multiimager (BioRad Co.) and Multianalyst, an attached image analyzing software package, were then employed to determine the level of the signal detected.

[3] = system: fluorescent-labeled 3′-deoxynucleotide; assay: Ability to incorporate fluorescent-labeled 3′-deoxynucleotide, fluorescent signal intensity on ABI 377 XL Sequencer
Experimental: A comparison was conducted of the ability to incorporate florescent-labeled 3′-deoxynucleotide of Δ-type enzyme of purified T7 RNA polymerase.
This method was conducted in accordance with the method of Sasaki et al. (Sasaki, N., et al. Gene, 222(1): 17-24 (1998)). In greater detail, pBluescriptII DNA was employed as template. A solution obtained by mixing Bodipy(R6G)-3′dATP, Bodipy(FL)-3′dGTP, Bodipy(581/591)-3′dCTP, Bodipy(564/570)-3′dUTP, ATP, GTP, CTP, and UTP in prescribed proportions was employed to conduct reactions differing only with regard to the T7 RNA polymerase employed. The enzymes employed were 100 units of T7 RNA polymerase (wild type) and T7 RNA polymerase F644Y; and 50 units of T7 RNA polymerase F644Y/Δ1. The reaction product was subjected to electrophoresis with an ABI 377 XL Sequencer. The average value of the fluorescent signal intensity was compared for each nucleotide.
Column (2) is a conversion of the value of (1) per unit of enzyme. Numbers shown in parentheses denote values relative to a value of “1” for the signal intensity of wild enzyme. […] Since the ABI 377 XL Sequencer is not a device for quantitative analysis, and operations is conducted on an extremely small amount of samples, large errors are to be expected.

[4] = relative to a value of 1 for the signal intensity of wild enzyme

Row | Molecule | Relative ability to incorporate 3′-dATP (3′-dATP [1]) | Relative ability to incorporate 3′-dATP (3′-dATP [2]) | (1) Average signal intensity U ([3]; Bodipy(564/570)-3′dUTP, 100 units of enzyme (50 units for F644Y/Δ1)) | (1) Average signal intensity C ([3]; Bodipy(581/591)-3′dCTP, 100 units of enzyme (50 units for F644Y/Δ1)) | (1) Average signal intensity G ([3]; Bodipy(FL)-3′dGTP, 100 units of enzyme (50 units for F644Y/Δ1)) | (1) Average signal intensity A ([3]; Bodipy(R6G)-3′dATP, 100 units of enzyme (50 units for F644Y/Δ1)) | (2) Signal intensity per unit of enzyme G ([3]; conversion of (1) per unit of enzyme) | Signal intensity per unit of enzyme A, value in parentheses relative to wild enzyme [3, 4] | Signal intensity per unit of enzyme C, value in parentheses relative to wild enzyme [3, 4] | Signal intensity per unit of enzyme G, value in parentheses relative to wild enzyme [3, 4] | Signal intensity per unit of enzyme U, value in parentheses relative to wild enzyme [3, 4] | Relative ability to incorporate 3′-dATP (3′-dATP [2]; listed as F644Y/Δ3) | Relative ability to incorporate 3′-dATP (3′-dATP [2]; listed as T7 RNA polymerase F644Y/Δ 3)
1 | T7 RNA polymerase (wild type): wild RNA polymerase derived from T7 phage | 1.00 | 1.00 | 120 | 146 | 220 | 67 | 2.2 | (1.0) | (1.0) | (1.0) | (1.0) | – | –
2 | B1 | – | – | – | – | – | – | – | – | – | – | – | 2.00±0.3 and 2.00 | 2.00 ± 0.3
3 | B2 | almost the same results | – | – | – | – | – | – | – | – | – | – | – | –
